Test results taken from patent US20260250312A1, “ANTIBACTERIAL COMPOUNDS ELIMINATING DORMANT BACTERIAL CELLS” (UNIVERSITÉ D'AIX-MARSEILLE, priority 2022, published 2026).
Values after ≈ are worked out from the molar mass of the structure shown. Values joined by “and” are separate entries in the source; they are usually repeats but may differ in a detail not shown here. Equal entries are not always repeated. Where two headings read alike, the source gives them in different places. Marks after values point to notes of the source that are not given here.

How the values were obtained:
[1] = system: Escherichia coli (ATCC28922); experiment: Microdilution MIC assay (CLSI-based), E. coli; format: cell-based; settings: 20 hours incubation at 35-37° C., MHB
How it was run: (§1)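 Broth microdilution per modified CLSI guidelines in Mueller Hinton broth, 200 μL, inoculum ca. 5×10^5 CFU/mL; compounds tested as salts, twofold dilutions from 0.2 mg/mL, in triplicate. MIC determined from OD at 620 nm after incubation.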

[2] = system: E. coli non-persister cells; experiment: Anti-persister activity test, non-persister cells; format: cell-based, Escherichia coli; settings: Escherichia coli, 4 h
Protocol: (§2) Anti-persister activity test: Escherichia coli (E. coli) persister cells were generated and isolated as described by MARQUES, C. N. H. et al. (Applied and Environmental Microbiology 2014, Vol. 80, No. 22, pp. 6976-6991). E. coli persister cells were compared to E. coli non-persister cells. 1 mL persister or non-persister bacteria culture was added in a 1.5 mL microtube with each of the compounds to be tested or ciprofloxacin as a […], and incubated at 37° C. with 160 rpm shaking for 4 hours. After 4 hours treatment with the compounds, the microtubes were centrifuged at 3,500g for 5 minutes and the pellets were resuspended in 1 mL of fresh drug free RM broth (10 g/L M9 salt, 2% casamino acids, 1 mM MgCl2, 1% glycerol). Resuspended bacteria were then plated over LB agar plates and incubated at 37° C. Bacterial colonies were enumerated after 24, 48 and 96 hours to estimate the survival rate.

[3] = system: Enterococcus faecalis (ATCC29212); experiment: Microdilution MIC assay (CLSI-based), E. faecalis; format: cell-based; settings: 20 hours incubation at 35-37° C., MHB
How it was run: as §1

[4] = system: Staphylococcus aureus (ATCC25923); experiment: Microdilution MIC assay (CLSI-based), S. aureus; format: cell-based; settings: Staphylococcus aureus, ATCC25923, 20 h, 20 hours incubation at 35-37° C., MHB; read-out: Minimum inhibitory concentration S. aureus ATCC25923
How it was run: as §1

[5] = system: Pseudomonas aeruginosa (ATCC27853); experiment: Microdilution MIC assay (CLSI-based), P. aeruginosa; format: cell-based; settings: 20 hours incubation at 35-37° C., MHB
How it was run: as §1

[6] = system: CHO-K1 cells; experiment: WST1 cytotoxicity test; format: cell-based, Chinese hamster
How it was run: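 CHO-K1 cells pre-cultured 24 h, then exposed 24 h at 37 °C to increasing compound concentrations. Viability read as WST-1 formazan absorbance at 450 nm after 20 min; dose-response fitted by nonlinear regression.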

[7] = system: Escherichia coli (E. coli) persister cells; experiment: Anti-persister activity test, persister cells; format: cell-based; settings: for anti-persister activity (in words): E. coli persister cells, Table 8 conditions
Protocol: as §2

CC[C@@H](C)[C@H](NC(=O)CC[C@@H](C)[C@H]1CC[C@H]2[C@@H]3[C@H](O)C[C@@H]4C[C@@H](NCCCNCCCCNCCCN)CC[C@]4(C)[C@H]3CC[C@]12C)C(=O)OC [Compound S044, methyl (2S,3R)-2-((4R)-4-((3S,5S,7R,10S,13R,17R)-3-((3-((4-((3-aminopropyl)amino)butyl)amino)propyl)amino)-7-hydroxy-10,13-dimethylhexadecahydro-1H-cyclopenta[a]phenanthren-17-yl)pentanamido)-3-methylpentanoate]
MIC ([1]; Escherichia coli, ATCC28922, 20 h, read-out: Minimum inhibitory concentration E. coli ATCC28922): 6.25 µM and 4 µg/mL
viability at 62.5 µM ([2]; read-out: Non-persister cell survival rate 96 h, concentration used 62.5 μM, 4 hours treatment): 0%
MIC ([3]; Enterococcus faecalis, ATCC29212, 20 h, read-out: Minimum inhibitory concentration E. faecalis ATCC29212): 6.25 µM and 4 µg/mL
MIC [4]: 6.25 µM and 4 µg/mL
MIC ([5]; Pseudomonas aeruginosa, ATCC27853, 20 h, read-out: Minimum inhibitory concentration P. aeruginosa ATCC27853): 12.5 µM and 8 µg/mL
toxicity results (in words) [6]: good toxicity results
IC50 ([6]; Cricetulus griseus, CHO-K1, 24 h, WST1, 24 hours at 37° C., read-out: IC50 CHO): 52.4 µM and 36.9 µg/mL
IC50 ([6]; Cricetulus griseus, CHO-K1, WST1, as printed in Table 8, read-out: Toxicity IC50 CHO): 52.4 µM
anti-persister activity (in words) [7]: both anti-persister and anti-bacterial activities
viability at 62.5 µM ([7]; Escherichia coli, 4 h, read-out: Persister cell survival rate 96 h, concentration used 62.5 μM, 4 hours treatment): 0%

COC(=O)[C@H](NC(=O)CC[C@@H](C)[C@H]1CCC2C3C(CC[C@@]21C)[C@@]1(C)CC[C@H](NCCCNCCCN)C[C@H]1C[C@H]3O)C(C)C (stereo partly drawn) [Compound S047, methyl ((4R)-4-((3S,5S,7R,10S,13R,17R)-3-((3-((3-aminopropyl)amino)propyl)amino)-7-hydroxy-10,13-dimethylhexadecahydro-1H-cyclopenta[a]phenanthren-17-yl)pentanoyl)-D-valinate]
Minimum inhibitory concentration E. coli ATCC28922 [1]: 12.5* μM and 8* μg/mL
viability at 125 µM ([2]; read-out: Non-persister cell survival rate 96 h, concentration used 125 μM, 4 hours treatment): 0%
Minimum inhibitory concentration E. faecalis ATCC29212 [3]: 12.5* μM and 8* μg/mL
MIC [4]: 6.25 µM and 4 µg/mL
Minimum inhibitory concentration P. aeruginosa ATCC27853 [5]: 12.5* μM and 8* μg/mL
IC50 CHO ([6]; WST1, 24 hours at 37° C.): 57.61 µg/mL (≈ 93.1 µM)
IC50 ([6]; WST1, 24 hours at 37° C., read-out: IC50 CHO): 93.1 µM
IC50 ([6]; WST1, Table 8, read-out: Toxicity IC50 CHO): 93.1 µM
anti-persister activity (in words) [7]: both anti-persister and anti-bacterial activities
viability at 125 µM ([7]; Escherichia coli, 4 h, read-out: Persister cell survival rate 96 h, concentration used 125 μM, 4 hours treatment): 0%
